Laboratory results from PubChem BioAssay (NCI).
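1) Cells in 96-well plates. 2) Compound, 48 h, 5 concentrations. 3) Linear interpolation between surrounding doses. 4) Unreached endpoint = highest concentration. GI50: concentration for 50% inhibition of growth. At the TGI there is no net growth.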

Key:
Experiment in all cases: NCI tumour cell line growth inhibition, 48 h
786-0 renal = tested on: 786-0 renal
MCF7 breast = tested on: MCF7 breast
NCI-H460 lung = tested on: NCI-H460 lung
MALME-3M melanoma = tested on: MALME-3M melanoma
SNB-75 CNS = tested on: SNB-75 CNS
HL-60(TB) leukemia = tested on: HL-60(TB) leukemia
SR leukemia = tested on: SR leukemia
SF-295 CNS = tested on: SF-295 CNS
MOLT-4 leukemia = tested on: MOLT-4 leukemia
SK-MEL-2 melanoma = tested on: SK-MEL-2 melanoma

Compound | GI50 (786-0 renal) [µM] | TGI (786-0 renal) [µM] | GI50 (MCF7 breast) [µM] | TGI (MCF7 breast) [µM] | GI50 (NCI-H460 lung) [µM] | TGI (NCI-H460 lung) [µM] | GI50 (MALME-3M melanoma) [µM] | TGI (MALME-3M melanoma) [µM] | GI50 (SNB-75 CNS) [µM] | TGI (SNB-75 CNS) [µM] | GI50 (HL-60(TB) leukemia) [µM] | TGI (HL-60(TB) leukemia) [µM] | GI50 (SR leukemia) [µM] | TGI (SR leukemia) [µM] | GI50 (SF-295 CNS) [µM] | TGI (SF-295 CNS) [µM] | GI50 (MOLT-4 leukemia) [µM] | TGI (MOLT-4 leukemia) [µM] | GI50 (SK-MEL-2 melanoma) [µM] | TGI (SK-MEL-2 melanoma) [µM]
O=C(Nc1cccc(-c2nc3ccccc3[nH]2)c1)c1cccc(NC(=O)c2ccco2)c1 | 1.65 | 3.05 | 1.52 | 3.02 | 1.67 | 3.03 | 2.11 | 4.34 | 1.55 | 2.91 | 5.43 | 17.4 | 2.33 | 6.53 | 1.92 | 4.41 | 2.96 | 12 | 5.33 | 16.9
C[C@@H](Oc1cc(-c2cnn(C3CC4(CCNCC4)C3)c2)cnc1N)c1c(F)ccc(Cl)c1Cl | 1.63 | 3.17 | 0.383 | 1.88 | 0.855 | 2.84 | 1.29 | 3.02 | 1.32 | 2.92 | 1.28 | 3.36 | 0.0467 | 1.53 | 0.612 | 2.43 | 1.29 | 5.82 | 1.93 | 3.74
C=C1C(=O)O[C@H]2[C@H]1CC/C(Cn1cc(Cn3ccc4cc(Cl)ccc43)nn1)=C\CC[C@@]1(C)O[C@@H]21 | 1.81 | 3.57 | 1.25 | 3.02 | 3.27 | 10.3 | 1.58 | 3.13 | 1.27 | 4.52 |  |  | 0.279 | 1.25 | 3.98 | 17 | 0.599 | 3.16 | 1.61 | 3.72
COc1cc2c3c(n(CCCn4ccnc4)c(=O)c2cc1OC)-c1ccccc1C3=O | < 0.01 | 0.194 | < 0.02 | > 43.4 | < 0.01 | 4.77 | 1.06 | > 60.8 | 0.0681 | 4.33 | < 0.01 | 0.102 | 0.0252 | 0.0583 | < 0.01 | 0.218 | < 0.01 | < 0.0167 | 0.927 | 17.3
O=C(/C=C/c1ccc2c(c1)OCO2)c1ccccc1 | 14.8 | 31 | 4.02 | 30 | 13.9 | 37.5 | 13.9 | 37.9 | 20.6 | 61.9 | 17.8 | 61.6 | 2.56 | 13.9 | 11.5 | 28.8 | 8.09 | > 100 |  | 
O=[N+]([O-])c1ccccc1/C=C/C=C1c2ccccc2-c2ccccc21 | > 100 | > 100 | 31.5 | > 100 | > 100 | > 100 | > 100 | > 100 | > 100 | > 100 | > 100 | > 100 | > 100 | > 100 | > 100 | > 100 | > 100 | > 100 | > 100 | > 100
Cc1cccc(Oc2ccc(Nc3ncnc4ccc(NC(=O)CN5CCN(C)CC5)cc34)cc2Cl)c1 | 1.59 | 2.99 | 1.51 | 2.99 | 1.75 | 3.28 | 1.59 | 3.16 | 1.44 | 2.81 |  |  | 1.72 | 5.32 | 1.83 | 3.39 |  |  | 1.87 | 3.64
O=C1OC2(c3ccccc31)c1cc(I)c(O)c(I)c1Oc1c2cc(I)c(O)c1I |  | > 100 |  | > 100 |  | > 100 |  | > 100 |  | > 100 |  |  |  | > 100 |  | > 100 |  | > 100 |  | > 100
Nc1nc(F)nc2c1ncn2C1OC(COP(=O)(O)O)C(O)C1O (stereo not drawn) |  | 384 |  | 717 |  | 616 |  | 254 |  | 713 |  | 71.9 |  | > 621 |  | 917 |  | 224 |  | 151
CC1=C([Se]CC(OC(=O)[C@@H](CSSC(C)(C)C)NC(=O)C(C)(C)C)C(=O)NCCCCCC(=O)OCc2ccccc2)C(=O)c2ccccc2C1=O (stereo partly drawn) | 2.1 | 3.66 | 3.04 | 9.74 | 0.637 | 2.52 | 2.49 | 5.15 | 1.37 | 2.66 | 2.51 | 5.98 | 3.84 | 18.5 | 0.317 | 1.95 | 3.24 | 9.52 | 2.26 | 5.06
CC(=O)NC(Cc1c[nH]c2ccccc12)C(=O)O (stereo not drawn) |  | > 100 |  | > 100 |  | > 100 |  | > 100 |  |  |  | > 100 |  | > 100 |  | > 100 |  |  |  | > 100
O=C(CSc1nc2sc3c(c2c(=O)n1-c1ccccc1)CCCCC3)N/N=C/c1ccc(F)cc1 | 5.49 | 18.8 | 2.91 | 21 | 1.12 | 2.98 | 1.67 | 5.86 | 1.85 | 4.93 | > 100 | > 100 | 0.357 | 6.17 | 3.8 | 14.7 | 9.09 | > 100 | 14.4 | 28.8
O=C1C=CC(=O)N1c1ccc2c(c1)Cc1cc(NC(=O)C(F)(F)F)ccc1-2 |  | 13 |  | 34.4 |  | > 100 |  | 40.1 |  | 31.3 |  | 38.1 |  | 6.44 |  | > 100 |  | > 100 |  | 34.2
N#Cc1c(SCc2ccccc2)nc2[nH]c(=S)[nH]c(=S)c2c1-c1ccco1 | 42.6 | > 100 | 28.4 | > 100 | 32.3 | > 100 |  |  | > 100 | > 100 | 40.6 | > 100 | 19.1 | > 100 | 43.5 | > 100 | 5.04 | > 100 | > 100 | > 100
COc1cc(/C=C2\C[C@H]3[C@@H]4CC=C5C[C@@H](OC(C)=O)CC[C@]5(C)[C@H]4CC[C@]3(C)[C@H]2OC(C)=O)ccc1OCCCn1ccnc1 | 6.06 | 13.4 | 9.95 | 20.9 | 9.2 | 22.9 |  |  |  |  | 12.7 | 34.1 | 8.2 | 36.3 | 4.77 | 12.4 | 17.1 | > 50 | 16.7 | > 50
Cc1cc(S(=O)(=O)/N=C(\N)n2nc(C)c(C)c2C)c(SCc2ccccc2)cc1Cl | > 100 | > 100 | 5.12 | > 100 | 6.57 | > 100 | > 100 | > 100 | > 100 | > 100 |  |  | > 100 | > 100 | 7.99 | > 100 | 3.52 | > 100 | > 100 | > 100
O=c1[nH]cnc2c1nnn2[C@@H]1O[C@H](CO)[C@@H](O)[C@H]1O | 3.83 | > 100 | 3.29 | > 100 | 2.51 | > 100 |  |  | 3.22 | > 100 | 1.56 | 39.5 | 4.77 | > 100 |  |  | 1.96 | 22.9 | 5.4 | 70
Fc1ccc(Nc2ccc3cc(OCCCN4CCOCC4)ccc3n2)cc1F | 2.15 | 4.68 | 3.11 | 27 | 2.93 | 8.74 | 2.25 | 7.74 | 2.44 | 17.7 |  |  | 2.03 | 32.8 | 1.89 | 4.3 | 3.45 | > 100 | 4.84 | 33.5
CCN(CC)CCCC(C)N/C(c1cccc(OC)c1)=c1\c(=O)[nH]n(-c2c3ccccc3nc3ccccc23)c(=O)\c1=C(/NC(C)CCCN(CC)CC)c1cccc(OC)c1 (stereo not drawn) | 1.17 | 3.04 | 0.507 | 3.41 | 0.428 | 2.56 | 1.9 | 3.54 | 1.41 | 2.74 | 2.16 | 5.23 | 1.28 | 5.61 | 1.74 | 3.86 | 0.6 | 3.89 |  | 
CCOC(=O)c1ccc(C(O)CC(=O)OC(C)(C)C)[nH]1 (stereo not drawn) | 23.9 | 83.3 | 10.4 | 30 | 35.9 | > 100 | 0.692 | 24.8 | 37.2 | > 100 |  |  | 22.4 | > 100 | 29.7 | 63.5 | 17.2 | > 100 | 21.3 | 41.3
Cn1c(Cc2ccccc2)nc2cc3ccccc3cc21 | 26 | 65.1 | 38 | > 100 | 27.6 | > 100 | 20.7 | 50.6 |  |  |  |  | 18.1 | 48.1 | 25.5 | 75.6 | 32.6 | > 100 | 40.7 | > 100
CC(=O)O[C@H]1C(=O)[C@@]2(C)[C@H]([C@H](OC(=O)c3ccccc3)[C@]3(O)C[C@H](OC(=O)[C@H](OC(=O)CCC(=O)OC4CCC(S/N=C(N)/N=C(\N)N(C)C)CC4)[C@@H](NC(=O)c4ccccc4)c4ccccc4)C(C)=C1C3(C)C)[C@]1(OC(C)=O)CO[C@@H]1C[C@@H]2O (stereo partly drawn) | 0.115 | > 50 | < 0.005 | > 50 | 0.0069 | > 27.7 |  |  | < 0.005 | 0.0174 | 0.0101 | 0.0234 | 0.00631 | > 50 | 0.0116 | 0.0818 | 0.0154 | > 50 |  | 
Cc1ccc(NC(=O)/C(=N/NC(=O)CC#N)C2C(=O)N(c3ccccc3)N=C2N)cc1C (stereo not drawn) |  | > 100 |  |  |  | > 100 |  | > 100 |  | > 100 |  | > 100 |  | > 100 |  | > 100 |  | > 100 |  | > 100
C/C=C/C/C=C/CCC(=O)C1OC1C(N)=O (stereo not drawn) |  | 25.8 |  | 30.6 |  | 25.4 |  | 32.9 |  | 27.8 |  |  |  | 50.5 |  | 30 |  | 51.7 |  | 32.5
C=C1C(=O)O[C@H]2[C@H]1CC/C(COC(=O)N[C@@H](Cc1c[nH]c3ccccc13)C(=O)OC)=C\CC[C@@]1(C)O[C@@H]21 | 1.48 | 2.92 |  |  | 3.4 | 12.6 | 1.51 | 3.07 | 4.45 | 19.3 | 0.363 | 1.89 | 0.262 | 1.51 | 9.4 | 21.6 | 1.54 | 5.05 | 2.21 | 6.06
CCC[CH2][Sn]([CH2]CCC)([O]C(=O)c1cccc(F)c1F)[O][Sn]([CH2]CCC)([CH2]CCC)[O]C(=O)c1cccc(F)c1F | 0.154 | 0.344 | 0.0463 | 0.2 | 1.3 | 2.62 | 0.118 | 0.284 | 0.317 | 1.52 |  |  | 0.0771 |  | 0.919 | 2.19 | 0.084 | 0.821 | 0.166 | 0.447
O=C1NC(=O)[C@H]2C3C=CC([C@@H]12)[C@@H]1C(=O)NC(=O)[C@H]31 |  | > 100 |  | > 100 |  | > 100 |  | > 100 |  |  |  | > 100 |  | > 100 |  | > 100 |  | > 100 |  | > 100
COc1ccc2c(c1)/C(=C/c1c(-c3ccc(C)cc3)nc3sc(C)cn13)C(=O)N2 | 6.68 | 50.2 | 12.1 | > 100 | 6.36 | 56.2 | 25.2 | > 100 | 11.8 | > 100 | 4.85 | 30.8 | 1.59 | 28.7 | 11 | > 100 |  |  | 14.6 | 47.7
